Measurements taken from US7344710B2 (priority 2001, dated 2008).

How the values were obtained:
HCT116 tumor xenograft = tested on: HCT116 tumor xenograft; parameters: species or system mice; settings: mouse, in vivo
B16 tumors = tested on: B16 tumors; parameters: species or system mice; settings: mouse, in vivo
[1] = mouse, in vivo

COBALT
Effect on tumor growth (FIG. 6A, 6B) (HCT116 tumor xenograft): tumors actually shrinking rather than simply slowing | Mice cured / complete tumor regression / long-term tumor-free survival (HCT116 tumor xenograft): four were apparently cured of their tumor and Four of these seven mice were cured and four of eight and half | Mice developing striking hemorrhagic necrosis of their tumors (HCT116 tumor xenograft): seven of eight | Time at which a black spot of hemorrhagic necrosis is evident (HCT116 tumor xenograft): 0.3 days | Visible hemorrhagic necrosis and disappearance of tumors (FIG. 5) (HCT116 tumor xenograft): dramatic effects on large subcutaneous tumors | Effect on tumor growth (FIG. 6C) (B16 tumors): tumors remained small over the four week course of this experiment | Deaths after a single dose of COBALT [1]: three of the mice died | Deaths after the first dose of COBALT [1]: Four mice died
